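Test compounds were applied to cells in 96-well plates for 48 hours at 5 doses. The concentration for full growth arrest is given as TGI.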
Experiments:
Assay in all cases: DTP human tumour cell line panel, 48 h
MDA-N = tested on: MDA-N
SN12C renal = tested on: SN12C renal
SNB-75 CNS = tested on: SNB-75 CNS
SF-268 CNS = tested on: SF-268 CNS
NCI/ADR-RES ovarian = tested on: NCI/ADR-RES ovarian
NCI-H460 lung = tested on: NCI-H460 lung
HCT-116 colon = tested on: HCT-116 colon
SW-620 colon = tested on: SW-620 colon
BT-549 breast = tested on: BT-549 breast
SK-MEL-2 melanoma = tested on: SK-MEL-2 melanoma
MALME-3M melanoma = tested on: MALME-3M melanoma

Row | Compound | TGI (MDA-N) | TGI (SN12C renal) | TGI (SNB-75 CNS) | TGI (SF-268 CNS) | TGI (NCI/ADR-RES ovarian) | TGI (NCI-H460 lung) | TGI (HCT-116 colon) | TGI (SW-620 colon) | TGI (BT-549 breast) | TGI (SK-MEL-2 melanoma) | TGI (MALME-3M melanoma)
1 | Fc1ccc(N2C(=S)SC(=Nc3ccccc3)C2=Nc2ccccc2)cc1 | > 100 µM | > 100 µM | > 100 µM | > 100 µM | > 100 µM | > 100 µM | > 100 µM | > 100 µM | > 100 µM | > 100 µM | > 100 µM
2 | CCOC(=O)C1(F)S(=O)(=O)OCCOS1(=O)=O | > 100 µM | > 100 µM | > 100 µM | > 100 µM | > 100 µM | – | > 100 µM | > 100 µM | > 100 µM | > 100 µM | > 100 µM
3 | CC(=O)Oc1ccc(/C=C/C(=O)OCCCOC(=O)/C=C/c2ccc(OC(C)=O)c(OC(C)=O)c2)cc1OC(C)=O | > 100 µM | > 100 µM | > 100 µM | > 100 µM | > 100 µM | > 100 µM | > 100 µM | > 100 µM | > 100 µM | > 100 µM | > 100 µM
4 | CC(=O)NC1C(OCc2ccccc2)OC(CO)C(O)C1OC(C)C(=O)NC(C)C(=O)NC(CCC(=O)NCCCCNc1c2ccccc2nc2cccc([N+](=O)[O-])c12)C(N)=O (centres undefined) | 0.0532 µM | 0.313 µM | 0.569 µM | 0.316 µM | 0.524 µM | 0.0363 µM | 0.068 µM | 0.0785 µM | 0.531 µM | 0.393 µM | 0.131 µM
5 | NC1CC(=O)c2c1sc(Cl)c2Cl (centres undefined) | > 100 µM | > 100 µM | > 100 µM | > 100 µM | > 100 µM | > 100 µM | > 100 µM | > 100 µM | > 100 µM | > 100 µM | > 100 µM
6 | COC(=O)c1ccc2c(c1)S/C(=C/c1ccc3ccc4cccc5ccc1c3c45)S2 | > 100 µM | > 100 µM | 46 µM | > 100 µM | 76.2 µM | > 100 µM | > 100 µM | 76.8 µM | > 100 µM | > 100 µM | > 100 µM
7 | CCOC(=O)NNC(=O)NCc1cccc(CNC(=O)NNC(=O)OCC)c1 | > 100 µM | > 100 µM | > 100 µM | > 100 µM | > 100 µM | > 100 µM | > 100 µM | > 100 µM | > 100 µM | > 100 µM | > 100 µM
8 | COC(=O)C(CCSC)NC(=O)CNC(=O)CSc1nnc(COc2ccc(Cl)cc2)n1-c1ccccc1 (centres undefined) | 32.7 µM | 32.4 µM | 36.3 µM | 32.7 µM | > 100 µM | 31.7 µM | 30.5 µM | 45.3 µM | 30.6 µM | 28.7 µM | 32.7 µM
9 | O=C(c1cccs1)N(C(=S)OCCOc1ccccc1)c1ccccc1 | 33.4 µM | 55.5 µM | 54.7 µM | > 100 µM | 57.7 µM | > 100 µM | 44.6 µM | 80 µM | 65.1 µM | 55.6 µM | 69.9 µM
10 | CCOP1(=O)CC(C)=C(Cl)C(O)C1 (centres undefined) | > 100 µM | > 100 µM | > 100 µM | > 100 µM | > 100 µM | > 100 µM | > 100 µM | > 100 µM | > 100 µM | > 100 µM | > 100 µM
11 | CCC(=O)C(CCN1CCC2(CCCc3ccccc32)CC1)(c1ccccc1)c1ccccc1 | 10.9 µM | 10.2 µM | > 27.2 µM | 16.4 µM | 14.3 µM | 9.4 µM | 3.22 µM | 12.9 µM | 3.36 µM | 4.34 µM | 3.76 µM
12 | CC(C)(C)C1=CC(C)(n2[nH]c(=O)n(-c3ccccc3)c2=O)C=C(C(C)(C)C)C1=O | > 100 µM | > 100 µM | > 100 µM | > 100 µM | > 100 µM | > 100 µM | > 100 µM | > 100 µM | > 100 µM | > 100 µM | > 100 µM
13 | O=c1c2cc(S(=O)(=O)O)ccc2nc(COc2ccc(Oc3ccc(Cl)cc3Cl)cc2)n1-c1ccc(Oc2ccc(Cl)cc2)cc1Cl | 59.2 µM | 32.9 µM | 50.1 µM | 26 µM | 39.5 µM | 32.8 µM | 58.4 µM | 50.4 µM | 34.3 µM | 32.2 µM | 85.2 µM
14 | CCOC(=O)C1(C(=O)OCC)[C@@H](c2ccccc2)C2=NO[C@@H]3CCC[C@H]1[C@H]23 | 64.6 µM | > 100 µM | > 100 µM | > 100 µM | > 100 µM | > 100 µM | > 100 µM | > 100 µM | > 100 µM | > 100 µM | > 100 µM
15 | COc1cc2c(c(O)c1OC)C(=O)[C@@H]1CCC(=O)N1C2 | > 100 µM | > 100 µM | > 100 µM | > 100 µM | > 100 µM | > 100 µM | > 100 µM | > 100 µM | > 100 µM | > 100 µM | > 100 µM
